In paper PMC4904242, “Comparative chemical genomics reveal that the spiroindolone antimalarial KAE609 (Cipargamin) is a P-type ATPase inhibitor” (Scientific Reports, 2016) one finds IC50 data, which are given here for one compound.

This assay has as its target T1, ScPma1p (Saccharomyces cerevisiae, UniProt P05030).
T1 construct: gene PMA1; ScPma1p-coated secretory vesicles from S. cerevisiae overexpressing ScPMA1
As to the kind of experiment: cell-free vesicle ATPase assay (Pi release). The class given is biochemical.

T1 sequence (P05030 whole entry): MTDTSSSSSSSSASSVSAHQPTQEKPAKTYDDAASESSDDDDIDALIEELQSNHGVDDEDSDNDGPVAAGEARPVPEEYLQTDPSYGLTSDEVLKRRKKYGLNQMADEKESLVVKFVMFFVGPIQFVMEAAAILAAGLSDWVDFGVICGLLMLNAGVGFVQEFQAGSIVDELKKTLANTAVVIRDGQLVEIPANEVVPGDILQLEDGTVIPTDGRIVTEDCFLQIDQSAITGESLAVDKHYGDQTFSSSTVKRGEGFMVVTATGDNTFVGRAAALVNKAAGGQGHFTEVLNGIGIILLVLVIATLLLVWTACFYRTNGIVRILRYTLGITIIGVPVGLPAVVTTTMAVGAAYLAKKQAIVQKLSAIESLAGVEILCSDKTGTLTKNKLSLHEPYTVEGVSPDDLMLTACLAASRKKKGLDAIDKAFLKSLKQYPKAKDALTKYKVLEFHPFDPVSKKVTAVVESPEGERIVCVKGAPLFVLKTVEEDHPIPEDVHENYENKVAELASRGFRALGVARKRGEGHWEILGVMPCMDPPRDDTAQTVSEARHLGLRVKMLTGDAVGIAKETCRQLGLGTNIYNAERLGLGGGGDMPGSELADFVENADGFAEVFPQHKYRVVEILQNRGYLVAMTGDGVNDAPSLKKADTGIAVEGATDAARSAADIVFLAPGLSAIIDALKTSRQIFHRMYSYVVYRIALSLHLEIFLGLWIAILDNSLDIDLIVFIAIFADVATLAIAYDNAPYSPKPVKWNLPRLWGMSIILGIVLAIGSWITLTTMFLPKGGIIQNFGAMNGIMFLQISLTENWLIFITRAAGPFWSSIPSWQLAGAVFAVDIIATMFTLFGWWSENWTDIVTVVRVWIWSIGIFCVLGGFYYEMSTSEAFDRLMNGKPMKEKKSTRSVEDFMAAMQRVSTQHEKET

One may read the IC50 as the concentration that inhibits the measured activity by half. A lower IC50 goes with inhibition by little substance. `C[C@H]1Cc2c([nH]c3cc(Cl)c(F)cc23)[C@@]2(N1)C(=O)Nc1ccc(Cl)cc12` [6′F 7′Cl, KAE609] had an IC50 of 81.1 nM.
